Experimental data: ChEMBL document CHEMBL5055672, “Design, Synthesis, Biological Evaluation, and Computational Studies of Novel Fluorinated Candidates as PI3K Inhibitors: Targeting Fluorophilic Binding Sites” (J Med Chem, 2021)

Assays:
[1] = Cytotoxicity against human Hs 578T cells assessed as growth inhibition at 10 uM after 48 hrs by sulforhodamine B assay; type: functional; conditions: read-out: GI
[2] = system: A549; test: Cytotoxicity against human A549 cells assessed as growth inhibition at 10 uM after 48 hrs by sulforhodamine B assay; type: functional; conditions: read-out: GI
[3] = molecular target: Phosphatidylinositol 4,5-bisphosphate 3-kinase catalytic subunit beta isoform (Homo sapiens, UniProt P42338); test: Inhibition of PI3Kbeta (unknown origin) using PIP2 as substrate preincubated for 10 mins followed by substrate addition and measured after 1 hr by ELISA
Chain of Phosphatidylinositol 4,5-bisphosphate 3-kinase catalytic subunit beta isoform (P42338 whole entry, canonical isoform): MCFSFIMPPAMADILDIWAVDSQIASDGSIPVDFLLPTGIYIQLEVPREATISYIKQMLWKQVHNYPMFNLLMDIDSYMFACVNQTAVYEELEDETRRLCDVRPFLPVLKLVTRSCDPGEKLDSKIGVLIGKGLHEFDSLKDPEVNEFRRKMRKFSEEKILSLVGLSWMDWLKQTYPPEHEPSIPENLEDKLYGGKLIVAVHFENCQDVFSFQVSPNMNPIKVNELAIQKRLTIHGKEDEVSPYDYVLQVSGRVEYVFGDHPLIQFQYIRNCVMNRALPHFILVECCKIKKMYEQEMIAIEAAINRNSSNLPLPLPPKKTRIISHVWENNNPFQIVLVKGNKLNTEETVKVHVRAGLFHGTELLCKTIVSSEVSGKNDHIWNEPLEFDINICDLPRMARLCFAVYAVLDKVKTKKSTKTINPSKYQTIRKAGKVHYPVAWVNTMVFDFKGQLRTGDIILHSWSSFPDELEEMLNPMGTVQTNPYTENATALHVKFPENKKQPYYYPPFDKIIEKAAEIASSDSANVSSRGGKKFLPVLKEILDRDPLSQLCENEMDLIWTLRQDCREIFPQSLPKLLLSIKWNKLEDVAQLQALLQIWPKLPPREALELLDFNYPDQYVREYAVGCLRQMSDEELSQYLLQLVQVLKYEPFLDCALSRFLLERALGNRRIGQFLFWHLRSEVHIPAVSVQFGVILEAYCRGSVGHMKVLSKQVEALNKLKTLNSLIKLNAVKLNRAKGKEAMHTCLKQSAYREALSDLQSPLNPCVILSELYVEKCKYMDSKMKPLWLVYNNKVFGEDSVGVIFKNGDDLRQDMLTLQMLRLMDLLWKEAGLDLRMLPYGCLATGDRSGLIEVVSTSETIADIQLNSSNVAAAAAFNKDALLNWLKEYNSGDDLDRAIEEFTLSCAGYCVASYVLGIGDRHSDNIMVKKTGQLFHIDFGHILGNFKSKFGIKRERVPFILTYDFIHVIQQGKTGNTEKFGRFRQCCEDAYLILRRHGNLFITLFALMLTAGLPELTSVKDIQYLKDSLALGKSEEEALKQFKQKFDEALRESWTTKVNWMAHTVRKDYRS

[4] = system: MCF7; test: Induction of cell cycle arrest in human MCF7 cells assessed as accumulation of cells at G1 phase at IC50 concentration by Propidium iodide staining based flow cytometric analysis (reference value: 61.45%); type: functional
[5] = system: MDA-MB-231; test: Cytotoxicity against human MDA-MB-231 cells assessed as growth inhibition at 10 uM after 48 hrs by sulforhodamine B assay; type: functional; conditions: read-out: GI
[6] = system: MCF7; test: Induction of apoptosis in human MCF7 cells assessed as late apoptotic cells at 13.30 uM after 48 hrs by annexin V-FITC/propidium iodide staining based flow cytometric analysis (reference value: 0.14%); type: functional; conditions: dose 13.3 µM
[7] = system: SW-620; test: Cytotoxicity against human SW-620 cells assessed as growth inhibition at 10 uM after 48 hrs by sulforhodamine B assay; type: functional; conditions: read-out: GI
[8] = system: SF-295; test: Cytotoxicity against human SF-295 cells assessed as growth inhibition at 10 uM after 48 hrs by sulforhodamine B assay; type: functional; conditions: read-out: GI
[9] = system: NCI/ADR-RES; test: Cytotoxicity against human NCI-ADR-RES cells assessed as growth inhibition at 10 uM after 48 hrs by sulforhodamine B assay; type: functional; conditions: read-out: GI
[10] = system: MCF7; test: Induction of cell cycle arrest in human MCF7 cells assessed as accumulation of cells at G phase at IC50 concentration by Propidium iodide staining based flow cytometric analysis (reference value: 1.76%); type: functional
[11] = system: HCT-15; test: Cytotoxicity against human HCT-15 cells assessed as growth inhibition at 10 uM after 48 hrs by sulforhodamine B assay; type: functional; conditions: read-out: GI
[12] = system: UACC-62; test: Cytotoxicity against human UACC-62 cells assessed as growth inhibition at 10 uM after 48 hrs by sulforhodamine B assay; type: functional; conditions: read-out: GI
[13] = system: HCT-116; test: Cytotoxicity against human HCT-116 cells assessed as growth inhibition at 10 uM after 48 hrs by sulforhodamine B assay; type: functional; conditions: read-out: GI
[14] = system: MCF7; test: Cytotoxicity against human MCF7 cells assessed as growth inhibition at 10 uM after 48 hrs by sulforhodamine B assay; type: functional; conditions: read-out: GI
[15] = system: MCF7; test: Induction of cell cycle arrest in human MCF7 cells assessed as accumulation of cells at S phase at IC50 concentration by Propidium iodide staining based flow cytometric analysis (reference value: 27.61%); type: functional

IC50 [3]: 53.5 µM
SMILES: COC(=O)/C=C1\S/C(=N\N=C\c2ccc(OCC(F)(F)F)cc2)N(c2ccccc2)C1=O
inhibition of growth at 10 µM [1]: 43% | inhibition of growth at 10 µM [2]: 15.3% | Activity [4]: 55.47% | inhibition of growth at 10 µM [5]: 21.5% | Activity [6]: 9.42% | inhibition of growth at 10 µM [7]: 12.4% | inhibition of growth at 10 µM [8]: 13.2% | inhibition of growth at 10 µM [9]: 24.6% | Activity [10]: 19.52% | inhibition of growth at 10 µM [11]: 17.3% | inhibition of growth at 10 µM [12]: 18.9% | inhibition of growth at 10 µM [13]: 28.8% | inhibition of growth at 10 µM [14]: 33.2% | Activity [15]: 36.02%
